The values that follow come from patent US20140348861A1, “SYNTHETIC PEPTIDES AND RANDOM COPOLYMERS FOR THE TREATMENT OF AUTOIMMUNE DISORDERS” (NATIONAL INSTITUTE OF IMMUNOLOGY, priority 2011, published 2014).

Starred links: 1 amine or outer side, 2 acyl side, 3 side chain; linkers in the order of their positions; H or OH if unused. Non-standard residues stand in square brackets, D forms with d. No end group written: not given here. Kβ = L-β-lysine, O=C(C[C@H](CCCN[*:3])N[*:1])[*:2]

In this experiment the test system is SJL/J mice exhibiting MBP (85-109) induced relapsing remitting form of EAE. Nature of the experiment: Therapeutic activity in MBP (85-109) induced relapsing remitting EAE, treatment from day 11. In kind it is in vivo. The note with it: SJL/J mice, RR EAE; for Therapeutic activity in comparison to GA (Therapeutic activity (Analogs) − Therapeutic activity GA) / Therapeutic activity in comparison to J5 (Therapeutic activity (Analogs) − Therapeutic activity (J5)): 0.1 mg daily for two weeks; for Therapeutic activity = % reduction in cumulative clinical disability score: synthetic peptides, 0.1 mg daily for two weeks from day 11 post-immunization. The method, then: SJL/J and C57BL6/J mice procured from Jackson's laboratory (Bar Harbor, Me.) were maintained under standard housing conditions in the central animal facility at NII as per institutional ethical committee guidelines. 8-10 week old female SJL/J mice were used throughout the study.
To induce RR EAE or chronic progressive EAE, SJL/J or C57BL6/J mice were immunized subcutaneously with 0.2 mg of MBP (85-109) or 0.1 mg MOG (35-55) emulsified in CFA and 200 ng of pertussis toxin was injected intraperitoneally on day 0 and day 2 so as to permeablize the blood brain barrier. All the animals in various experimental groups were scored daily for clinical disability on a scale of 0-6 where 0=no neurological symptoms, 1=limp tail, 2=weakness of hind limbs or ataxia, 3=incomplete paralysis of hind limbs, 4=complete paralysis of hind limbs, 5=complete paralysis of all four limbs, 6=dead. Diseased animals were provided easy access to food and water.
GA, J91, J92, S101, S102, S103 for two weeks and scored for clinical disability.

Consider EKPKVEAYKAAAAPAβ [Analog S41], for which the “Therapeutic activity in comparison to GA (Therapeutic activity (Analogs) − Therapeutic activity GA)” value is recorded as 2.032%, the “Therapeutic activity in comparison to J5 (Therapeutic activity (Analogs) − Therapeutic activity (J5))” value is reported as −1.925% and the “Therapeutic activity = % reduction in cumulative clinical disability score” value (shortened to “Therapeutic activity = % reduction”) was 33.37%.

As to EKPKVEAYKAAAAPAβ^3 [Analog S1], the “Therapeutic activity in comparison to GA (Therapeutic activity (Analogs) − Therapeutic activity GA)” value amounted to 2.995%, the “Therapeutic activity in comparison to J5 (Therapeutic activity (Analogs) − Therapeutic activity (J5))” value is recorded as −0.9626% and the “Therapeutic activity = % reduction” value was determined as 34.33%.

On to EKPKVEAYKAAAAPβ^3Aβ^3 [Analog S2], for which the “Therapeutic activity in comparison to GA (Therapeutic activity (Analogs) − Therapeutic activity GA)” value came out at 2.139%, the “Therapeutic activity in comparison to J5 (Therapeutic activity (Analogs) − Therapeutic activity (J5))” value is on record as −1.818% and the “Therapeutic activity = % reduction” value is given as 33.48%.

For the substance EKPKVEAYKAAAAβPAβ [Analog S42], the “Therapeutic activity in comparison to GA (Therapeutic activity (Analogs) − Therapeutic activity GA)” value was found to be 3.316%, the “Therapeutic activity in comparison to J5 (Therapeutic activity (Analogs) − Therapeutic activity (J5))” value is listed as −0.6417% and the “Therapeutic activity = % reduction” value stood at 34.65%.

With EKPKVEAYKAAAAβ^3Pβ^3Aβ^3 [Analog S3], the “Therapeutic activity in comparison to GA (Therapeutic activity (Analogs) − Therapeutic activity GA)” value is given as 5.027%, the “Therapeutic activity in comparison to J5 (Therapeutic activity (Analogs) − Therapeutic activity (J5))” value was found to be 1.07% and the “Therapeutic activity = % reduction” value worked out at 36.36%.

On to EKPKVEAYKAAAβAβPAβ [Analog S43], for which the “Therapeutic activity in comparison to GA (Therapeutic activity (Analogs) − Therapeutic activity GA)” value stood at 9.947%, the “Therapeutic activity in comparison to J5 (Therapeutic activity (Analogs) − Therapeutic activity (J5))” value is 5.989% and the “Therapeutic activity = % reduction” value is 41.28%.

Consider EKPKVEAYKAAAβ^3Aβ^3Pβ^3Aβ^3 [Analog S4], for which the “Therapeutic activity in comparison to GA (Therapeutic activity (Analogs) − Therapeutic activity GA)” value is on record as 4.492%, the “Therapeutic activity in comparison to J5 (Therapeutic activity (Analogs) − Therapeutic activity (J5))” value amounted to 0.5348% and the “Therapeutic activity = % reduction” value is recorded as 35.83%.

Turning to EKPKVEAYKAAβAβAβPAβ [Analog S44], the “Therapeutic activity in comparison to GA (Therapeutic activity (Analogs) − Therapeutic activity GA)” value stood at 15.94%, the “Therapeutic activity in comparison to J5 (Therapeutic activity (Analogs) − Therapeutic activity (J5))” value worked out at 11.98% and the “Therapeutic activity = % reduction” value amounted to 47.27%.

As for “EKPKVEAYKAAβ^3Aβ^3Aβ^3Pβ^3Aβ^3 [Analog S5]”, the “Therapeutic activity in comparison to GA (Therapeutic activity (Analogs) − Therapeutic activity GA)” value was 11.02%, the “Therapeutic activity in comparison to J5 (Therapeutic activity (Analogs) − Therapeutic activity (J5))” value is reported as 7.059% and the “Therapeutic activity = % reduction” value is reported as 42.35%.

For the substance EKPKVEAYKAβAβAβAβPAβ [Analog S45], the “Therapeutic activity in comparison to GA (Therapeutic activity (Analogs) − Therapeutic activity GA)” value was 23.53%, the “Therapeutic activity in comparison to J5 (Therapeutic activity (Analogs) − Therapeutic activity (J5))” value is reported as 19.57% and the “Therapeutic activity = % reduction” value is reported as 54.87%.

In the case of “EKPKVEAYKβAβAβAβAβPAβ (EKPKVEAY[Kβ]XXXXPX; not fully specified (residues 10, 11, 12, 13, 15); printed as EKPKVEAYKβAβAβAβAβPAβ) [Analog S46]”, the “Therapeutic activity in comparison to GA (Therapeutic activity (Analogs) − Therapeutic activity GA)” value was 21.93%, the “Therapeutic activity in comparison to J5 (Therapeutic activity (Analogs) − Therapeutic activity (J5))” value was determined as 17.97% and the “Therapeutic activity = % reduction” value amounted to 53.26%.

As for “EKPKVEAYKβ^3Aβ^3Aβ^3Aβ^3Aβ^3Pβ^3Aβ^3 [Analog S6]”, the “Therapeutic activity in comparison to GA (Therapeutic activity (Analogs) − Therapeutic activity GA)” value was 19.47%, the “Therapeutic activity in comparison to J5 (Therapeutic activity (Analogs) − Therapeutic activity (J5))” value is 15.51% and the “Therapeutic activity = % reduction” value came out at 50.8%.

On to EKPKVEAYβKβAβAβAβAβPAβ [Analog S47], for which the “Therapeutic activity in comparison to GA (Therapeutic activity (Analogs) − Therapeutic activity GA)” value turned out to be 20.96%, the “Therapeutic activity in comparison to J5 (Therapeutic activity (Analogs) − Therapeutic activity (J5))” value was 17.01% and the “Therapeutic activity = % reduction” value is 52.3%.

Regarding “EKPKVEAYβ^3Kβ^3Aβ^3Aβ^3Aβ^3Aβ^3Pβ^3Aβ^3 [Analog S7]”, the “Therapeutic activity in comparison to GA (Therapeutic activity (Analogs) − Therapeutic activity GA)” value was 22.46%, the “Therapeutic activity in comparison to J5 (Therapeutic activity (Analogs) − Therapeutic activity (J5))” value is listed as 18.5% and the “Therapeutic activity = % reduction” value was 53.8%.

“EKPKVEAYβ^3Kβ^3Aβ^3Aβ^3Aβ^3Aβ^3Pβ^3Aβ^3 [Analog S8]”: the “Therapeutic activity in comparison to GA (Therapeutic activity (Analogs) − Therapeutic activity GA)” value is 23.85%, the “Therapeutic activity in comparison to J5 (Therapeutic activity (Analogs) − Therapeutic activity (J5))” value is on record as 19.89% and the “Therapeutic activity = % reduction” value is 55.19%.

For the substance EKPKVEAβYβKβAβAβAβAβPAβ [Analog S48], the “Therapeutic activity in comparison to GA (Therapeutic activity (Analogs) − Therapeutic activity GA)” value worked out at 22.89%, the “Therapeutic activity in comparison to J5 (Therapeutic activity (Analogs) − Therapeutic activity (J5))” value is listed as 18.93% and the “Therapeutic activity = % reduction” value came out at 54.2246%.

As for “EKPKVEAβ^3Yβ^3Kβ^3Aβ^3Aβ^3Aβ^3Aβ^3Pβ^3Aβ^3 [Analog S9]”, the “Therapeutic activity in comparison to GA (Therapeutic activity (Analogs) − Therapeutic activity GA)” value was 23.74%, the “Therapeutic activity in comparison to J5 (Therapeutic activity (Analogs) − Therapeutic activity (J5))” value turned out to be 19.79% and the “Therapeutic activity = % reduction” value was determined as 55.08%.

On to EKPKVEβAβYβKβAβAβAβAβPAβ [Analog S49], for which the “Therapeutic activity in comparison to GA (Therapeutic activity (Analogs) − Therapeutic activity GA)” value is reported as 18.93%, the “Therapeutic activity in comparison to J5 (Therapeutic activity (Analogs) − Therapeutic activity (J5))” value came out at 14.97% and the “Therapeutic activity = % reduction” value came to 50.27%.

“EKPKVEβ^3Aβ^3Yβ^3Kβ^3Aβ^3Aβ^3Aβ^3Aβ^3Pβ^3Aβ^3 [Analog S10]”: the “Therapeutic activity in comparison to GA (Therapeutic activity (Analogs) − Therapeutic activity GA)” value stood at 19.89%, the “Therapeutic activity in comparison to J5 (Therapeutic activity (Analogs) − Therapeutic activity (J5))” value worked out at 15.94% and the “Therapeutic activity = % reduction” value came out at 51.23%.

For the substance EKPKVβEβAβYβKβAβAβAβAβPAβ [Analog S50], the “Therapeutic activity in comparison to GA (Therapeutic activity (Analogs) − Therapeutic activity GA)” value was −1.925%, the “Therapeutic activity in comparison to J5 (Therapeutic activity (Analogs) − Therapeutic activity (J5))” value was −5.882% and the “Therapeutic activity = % reduction” value was 29.41%.

In the case of “EKPKVβ^3Eβ^3Aβ^3Yβ^3Kβ^3Aβ^3Aβ^3Aβ^3Aβ^3Pβ^3Aβ^3 [Analog S11]”, the “Therapeutic activity in comparison to GA (Therapeutic activity (Analogs) − Therapeutic activity GA)” value is reported as 23.53%, the “Therapeutic activity in comparison to J5 (Therapeutic activity (Analogs) − Therapeutic activity (J5))” value worked out at 19.57% and the “Therapeutic activity = % reduction” value is 54.87%.

Take EKPKβVβEβAβYβKβAβAβAβAβPAβ [Analog S51]: the “Therapeutic activity in comparison to GA (Therapeutic activity (Analogs) − Therapeutic activity GA)” value is listed as −4.92%, the “Therapeutic activity in comparison to J5 (Therapeutic activity (Analogs) − Therapeutic activity (J5))” value was −8.877% and the “Therapeutic activity = % reduction” value is 26.42%.

As for “EKPKβ^3Vβ^3Eβ^3Aβ^3Yβ^3Kβ^3Aβ^3Aβ^3Aβ^3Aβ^3Pβ^3Aβ^3 [Analog S12]”, the “Therapeutic activity in comparison to GA (Therapeutic activity (Analogs) − Therapeutic activity GA)” value is recorded as 25.88%, the “Therapeutic activity in comparison to J5 (Therapeutic activity (Analogs) − Therapeutic activity (J5))” value is 21.93% and the “Therapeutic activity = % reduction” value is on record as 57.22%.

In the case of “EKPβ^3Kβ^3Vβ^3Eβ^3Aβ^3Yβ^3Kβ^3Aβ^3Aβ^3Aβ^3Aβ^3Pβ^3Aβ^3 [Analog S13]”, the “Therapeutic activity in comparison to GA (Therapeutic activity (Analogs) − Therapeutic activity GA)” value came to 24.71%, the “Therapeutic activity in comparison to J5 (Therapeutic activity (Analogs) − Therapeutic activity (J5))” value turned out to be 20.75% and the “Therapeutic activity = % reduction” value is given as 56.04%.

For “EKβPKβVβEβAβYβKβAβAβAβAβPAβ [Analog S52]”, the “Therapeutic activity in comparison to GA (Therapeutic activity (Analogs) − Therapeutic activity GA)” value is listed as −1.604%, the “Therapeutic activity in comparison to J5 (Therapeutic activity (Analogs) − Therapeutic activity (J5))” value is recorded as −5.5615% and the “Therapeutic activity = % reduction” value was found to be 29.73%.

In the case of “EKβ^3Pβ^3Kβ^3Vβ^3Eβ^3Aβ^3Yβ^3Kβ^3Aβ^3Aβ^3Aβ^3Aβ^3Pβ^3Aβ^3 [Analog S14]”, the “Therapeutic activity in comparison to GA (Therapeutic activity (Analogs) − Therapeutic activity GA)” value came to 27.91%, the “Therapeutic activity in comparison to J5 (Therapeutic activity (Analogs) − Therapeutic activity (J5))” value is reported as 23.96% and the “Therapeutic activity = % reduction” value was 59.25%.

Consider EβKβPKβVβEAYβKβAβAβAβAβPAβ [Analog S54], for which the “Therapeutic activity in comparison to GA (Therapeutic activity (Analogs) − Therapeutic activity GA)” value is on record as −1.6E−06%, the “Therapeutic activity in comparison to J5 (Therapeutic activity (Analogs) − Therapeutic activity (J5))” value is listed as −3.957% and the “Therapeutic activity = % reduction” value was determined as 31.3369%.

Consider “EβKβPKβVβEβAβYβKβAβAβAβAβPAβ [Analog S53]”, for which the “Therapeutic activity in comparison to GA (Therapeutic activity (Analogs) − Therapeutic activity GA)” value was 0.2139%, the “Therapeutic activity in comparison to J5 (Therapeutic activity (Analogs) − Therapeutic activity (J5))” value is −3.743% and the “Therapeutic activity = % reduction” value is given as 31.5508%.

Consider “EβKβPKβ^3Vβ^3Eβ^3AβYβ^3Kβ^3AβAβAβAβ^3PAβ [Analog S79]”, for which the “Therapeutic activity in comparison to GA (Therapeutic activity (Analogs) − Therapeutic activity GA)” value came to 28.77%, the “Therapeutic activity in comparison to J5 (Therapeutic activity (Analogs) − Therapeutic activity (J5))” value stood at 24.81% and the “Therapeutic activity = % reduction” value was found to be 60.11%.

Consider “EβKβPKβ^3Vβ^3Eβ^3AβYβ^3Kβ^3AβAβAβ^3Aβ^3PAβ [Analog S80]”, for which the “Therapeutic activity in comparison to GA (Therapeutic activity (Analogs) − Therapeutic activity GA)” value is 30.7%, the “Therapeutic activity in comparison to J5 (Therapeutic activity (Analogs) − Therapeutic activity (J5))” value was 26.74% and the “Therapeutic activity = % reduction” value is listed as 62.03%.
